According to patent publication US8980544B2, “Boronic and borinic acid compounds as inhibitors of sulfenic acid-containing proteins” (The Penn State Research Foundation, priority 2012, dated 2015):
Where two headings read alike, the source gives them in different places. Marks after values point to notes of the source that are not given here.

Assays:
[1] = pKa by half-neutralization technique in acetonitrile-water; assay type: physicochemical
Description: The final volume of the solutions is 5 mL. The averaged pKa values from duplicate measurements are reported, and used for analysis.
It should be noted that the pKa values determined this way are not corrected for the change in the autoprotolysis constant of the solution due to mix solvent system.

[2] = literature value; cited from earlier work
[3] = target: T1, iron-based NHase from Rhodococcus erythropolis AJ270 (Rhodococcus erythropolis, UniProt P13448); test: Enzymatic inhibition of nitrile hydratase (NCTB conversion, 412 nm); assay type: biochemical; details: for Average rate (abs/min): 1 mM NCTB, 23° C.; for Rate relative to NHase: NHase without additive = 100%; for Activity: nmol thiolate product per minute per mg freeze-dried NHase powder
T1 construct: purchased Prozomix Limited
T1 sequence (P13448 1-207): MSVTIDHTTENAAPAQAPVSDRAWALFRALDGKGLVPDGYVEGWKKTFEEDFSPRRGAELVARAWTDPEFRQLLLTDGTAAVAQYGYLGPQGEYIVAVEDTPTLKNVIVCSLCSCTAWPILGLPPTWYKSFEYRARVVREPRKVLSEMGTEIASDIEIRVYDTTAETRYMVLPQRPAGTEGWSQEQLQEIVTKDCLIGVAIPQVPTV
T1 sequence (P13449 1-212 partner): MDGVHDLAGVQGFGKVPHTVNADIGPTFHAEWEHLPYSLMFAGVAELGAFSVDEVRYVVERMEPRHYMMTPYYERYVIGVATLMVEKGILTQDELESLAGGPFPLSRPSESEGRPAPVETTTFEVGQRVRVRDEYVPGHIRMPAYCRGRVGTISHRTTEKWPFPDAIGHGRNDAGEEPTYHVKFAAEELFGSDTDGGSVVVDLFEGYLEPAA
Description: Here, the catalytic efficiency of the iron-based NHase from Rhodococcus erythropolis AJ270 (purchased from Prozomix Limited, Station court, Haltwhistle, Northumberland, NE49 9HN, UK; see, proxomix.com) was assayed in the presence of a known sulfenic acid trap (dimedone) and four boronic acid derivatives. The chosen assay [Sari et al., J. Inorg. Biochem. 2007 101:614-622] was the conversion of 2-nitro-5-thiocyanatobenzoic acid (NCTB) into formamide and 5-mercapto-2-nitrobenzoic acid.
The freeze-dried powder from Prozomix was shipped at room temperature and stored at −20° C. upon arrival. The enzyme was reconstituted at 20 mg/mL in 50 mM phosphate buffer (pH 7.0) with 40 mM butyric acid. These were similar conditions to those described in the Prozomix protocol, the main difference being the use of phosphate buffer instead of Tris buffer; by itself, NHase prepared in Tris had the same reactivity as samples prepared in phosphate buffer. The solution was exposed to 400 W white light for 25 minutes on ice to permit for photo-reactivation of the enzyme.
The kinetic studies were conducted by diluting the stock solution of NHase into de-ionized distilled water (ddH2O) to get at about 0.33 mg/mL of freeze-dried NHase powder provided by Prozomix (used without further manipulation) in solution. Appropriate amounts of PBA (phenyl boronic acid; 2 g), BOXY ((2-hydroxylmethyl)-benzeneboronic acid hemiester; 2A), 3BrB (3-bromobenzeneboronic acid; 2d), or dimedone were added to the mixtures so that the final concentrations of the boronic acids/dimedone were 0, 0.5, 1.0, 2.0, or 2.5 mM.
After permitting the newly composed mixtures to sit at room temperature (at about 23° C.) for five minutes, NCTB was added so that the final NCTB concentration equalled 1 mM. The final volume of the mixtures was 1 mL in UV-cells with 1 cm path length. The final concentration of the phosphate buffer was 3.6 mM. The progress of the reaction (release of the thiolate product at 412 nm; extinction coefficient at 412 nm=13600/M/cm) [Sari et al., J. Inorg. […] The rates of the reaction were determined from fitting the first 4 minutes of the absorbance vs. time traces to a standard linear equation. The activity values were calculated as nmol of thiolate product generated per minute per mg of freeze-dried NHase powder. The reaction rates are reported below in Table 4, below, as averages of duplicate kinetic studies.

[4] = Spectrophotometric (UV/vis) titration of boronic acids 2 against the sodium salt of sulfenic acid 1, incl. reversibility with NaOH; details: for Kd: read-out: Averaged Kd from spectrophotometric titrations
Description: The titration studies were performed using a Cary 100 Bio UV/vis spectrophotometer thermostated at 22° C. […] Each titration study was completed within 10 minutes.
The initial solution contained 0.8 mM of the sodium salt of 1.

[5] = 15% (v/v) acetonitrile-water mixture, 15% (v/v) acetonitrile-water, half-neutralization, averaged duplicates, Table 1, read-out: pKa in 15% acetonitrile-water at 22° C.
[6] = 70% (v/v) acetonitrile-water mixture, read-out: Averaged pKa value from half neutralization method in 70% (v/v) acetonitrile-water
[7] = 15% acetonitrile-water mixture, 15% acetonitrile-water, as listed in Table 2, read-out: pKa in 15% acetonitrile-water
[8] = complex 1:2, 70% (v/v) acetonitrile-water, 22° C.
[9] = complex 1:2, 15% (v/v) acetonitrile-water

SMILES	pKa [1, 5]	Average rate (abs/min) ([3]; [B]/[Dimedone] = 0.5 mM)	Rate relative to NHase ([3]; [B]/[Dimedone] = 0.5 mM) [%]	Activity ([3]; [B]/[Dimedone] = 0.5 mM) [nmol/min/mg]	Average rate (abs/min) ([3]; [B]/[Dimedone] = 1.0 mM)	Rate relative to NHase ([3]; [B]/[Dimedone] = 1.0 mM) [%]	Activity ([3]; [B]/[Dimedone] = 1.0 mM) [nmol/min/mg]	Average rate (abs/min) ([3]; [B]/[Dimedone] = 2.0 mM)	Rate relative to NHase ([3]; [B]/[Dimedone] = 2.0 mM)	Activity ([3]; [B]/[Dimedone] = 2.0 mM) [nmol/min/mg]	Average rate (abs/min) ([3]; [B]/[Dimedone] = 2.5 mM)	Rate relative to NHase ([3]; [B]/[Dimedone] = 2.5 mM) [%]	Activity ([3]; [B]/[Dimedone] = 2.5 mM) [nmol/min/mg]	pKa [1, 7]	further results
OB1OCc2ccccc21 [Compound 2A, 2-(hydroxymethyl)benzeneboronic acid hemiester]	7.8	0.0039 ± 0.0002	87	0.870	0.0034 ± 0.0002	74	0.826	0.00266 ± 0.00008	61%	0.592	0.00205 ± 0.00009	45	0.502	7.8	Effectiveness of NHase inhibition among the boronic acids examined ([3]; comparison of PBA, BOXY, 3BrB, 0.5-2.5 mM): most effective; Averaged -log (Kd) in 15% acetonitrile-water at 22° C. [4]: 3.8 ± 0.1; Averaged -log (Kd) in 70% acetonitrile-water at 22° C. [4]: 3.90 ± 0.02; Kd [4]: 158 µM; pKa [1, 6]: 10.2
OB(O)c1cccc(Br)c1 [Compound 2d, 3-Bromobenzene-boronic acid]	8.55	0.0039 ± 0.0004	87	0.878	0.00369 ± 0.00009	81	0.903	0.00348 ± 0.0004	79%	0.775	0.00319 ± 0.0007	69	0.782	8.48	Averaged -log (Kd) in 70% acetonitrile-water at 22° C. [4, 8]: 4.0 ± 0.1; Kd [4, 9]: 158 µM
OB(O)c1ccccc1 [Compound 2g, phenylboronic acid]	9.5 ± 0.06	0.0043 ± 0.0004	96	0.968	0.0041 ± 0.0002	91	1.006	0.00382 ± 0.00004	87%	0.851	0.0038 ± 0.0001	83	0.931	9.38	Averaged -log (Kd) in 70% acetonitrile-water at 22° C. [4, 8]: 3.96 ± 0.04; Kd [4, 9]: 200 µM
COc1ccc(B(O)O)cc1 [Compound 2h, 4-methoxybenzeneboronic acid]	10.13 ± 0.02														
CC1(C)CC(=O)CC(=O)C1 [Dimedone, 5,5-dimethyl-1,3-cyclohexanedione, reference compound]		0.00274 ± 0.00006	61	0.611	0.0017 ± 0.0004	37	0.406	0	0%***	0	0	0	0		

More lines, main results first:

pKa [1, 5]	SMILES	Average rate (abs/min) ([3]; [B]/[Dimedone] = 0.5 mM)	Rate relative to NHase ([3]; [B]/[Dimedone] = 0.5 mM) [%]	Activity ([3]; [B]/[Dimedone] = 0.5 mM) [nmol/min/mg]	Average rate (abs/min) ([3]; [B]/[Dimedone] = 1.0 mM)	Rate relative to NHase ([3]; [B]/[Dimedone] = 1.0 mM) [%]	Activity ([3]; [B]/[Dimedone] = 1.0 mM) [nmol/min/mg]	Average rate (abs/min) ([3]; [B]/[Dimedone] = 2.0 mM)	Rate relative to NHase ([3]; [B]/[Dimedone] = 2.0 mM)	Activity ([3]; [B]/[Dimedone] = 2.0 mM) [nmol/min/mg]	Average rate (abs/min) ([3]; [B]/[Dimedone] = 2.5 mM)	Rate relative to NHase ([3]; [B]/[Dimedone] = 2.5 mM) [%]	Activity ([3]; [B]/[Dimedone] = 2.5 mM) [nmol/min/mg]	pKa [1, 7]	further results
7.61 ± 0.02	O=C1c2ccccc2C(=O)c2c(SO)cccc21 [Compound 1, anthraquinone-1-sulfenic acid, reference compound]														pKa [1, 6]: 8.6 ± 0.1; pKa value reported in Kice et al., J. Org. Chem. 1989 [2]: 7.51
7.39 ± 0.05	O=[N+]([O-])c1ccc(B(O)O)cc1 [Compound 2b, 4-nitrobenzeneboronic acid]														
9.1 ± 0.1	OB(O)c1ccc(Br)cc1 [Compound 2e, 4-bromo-benzeneboronic acid]														
9.4 ± 0.02	OB(O)c1ccc(F)cc1 [Compound 2f, 4-fluorobenzene-boronic acid]														
